Reference: PubChem BioAssay AID256 (DTP/NCI, 2004)
Several values for one entry are separate records, joined by “and”; a condition that tells them apart may be missing. Identical values can stand only once. Toxic doses and inconclusive results are not listed. The calls were made as follows: active = survival T/C of 150% or more; inactive = T/C below 125% in these data.

System: CD2F1 mice, L1210 leukemia ip, survival T/C
Assay: NCI In Vivo Anticancer Drug Screen. Data for tumor model L1210 Leukemia (intraperitoneal) in CD2F1 (CDF1) mice
Conditions: higher = longer survival
In short: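 Compound-dosed mice with transplantable tumor versus matched vehicle controls; endpoint ratio T/C reported.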

[1] = endpoint: mean survival time, dose: 12.5 mg/kg/injection, schedule: Q01DX009 (ip), vehicle: other
[2] = endpoint: mean survival time, dose: 25.0 mg/kg/injection, schedule: Q01DX009 (ip), vehicle: other
[3] = endpoint: mean survival time, dose: 50.0 mg/kg/injection, schedule: Q01DX009 (ip), vehicle: other
[4] = endpoint: mean survival time, dose: 100.0 mg/kg/injection, schedule: Q01DX009 (ip), vehicle: other
[5] = endpoint: mean survival time, dose: 200.0 mg/kg/injection, schedule: Q01DX009 (ip), vehicle: other
[6] = endpoint: mean survival time, dose: 75.0 mg/kg/injection, schedule: Q01DX001 (ip), vehicle: saline
[7] = endpoint: mean survival time, dose: 150.0 mg/kg/injection, schedule: Q01DX001 (ip), vehicle: saline

Measured: T/C

CC1(C)/C(=N/Nc2ccc([N+](=O)[O-])cc2[N+](=O)[O-])CCc2ccccc21
inactive: [1] 94 % of control | [2] 97 % of control | [3] 90 % of control | [4] 94 % of control | [5] 90 % of control

COc1ccc(NC(=O)CCl)cc1
inactive: endpoint: mean survival time, dose: 25.0 mg/kg/injection, schedule: Q01DX009 (ip), vehicle: Klucel (hydroxypropylcellulose) (HPC) 96 % of control and 98 % of control | endpoint: mean survival time, dose: 50.0 mg/kg/injection, schedule: Q01DX009 (ip), vehicle: Klucel (hydroxypropylcellulose) (HPC) 96 % of control and 98 % of control | endpoint: mean survival time, dose: 100.0 mg/kg/injection, schedule: Q01DX009 (ip), vehicle: Klucel (hydroxypropylcellulose) (HPC) 96 % of control and 104 % of control

O=C1NC(=O)c2c(O)ccc(O)c21
inactive: endpoint: mean survival time, dose: 100.0 mg/kg/injection, schedule: Q01DX001 (ip), vehicle: Klucel (hydroxypropylcellulose) (HPC) 114 % of control | endpoint: mean survival time, dose: 200.0 mg/kg/injection, schedule: Q01DX001 (ip), vehicle: Klucel (hydroxypropylcellulose) (HPC) 91 % of control | endpoint: mean survival time, dose: 400.0 mg/kg/injection, schedule: Q01DX001 (ip), vehicle: Klucel (hydroxypropylcellulose) (HPC) 95 % of control

[O-][n+]1onc2ccc(Cl)cc21
inactive: endpoint: mean survival time, dose: 100.0 mg/kg/injection, schedule: Q04DX003 (ip), vehicle: Klucel (hydroxypropylcellulose) (HPC) 102 % of control

CC(=Nc1ccccc1)C1=C(O)C(Cc2cccc(F)c2)NC1=O (stereo unspecified)
inactive: endpoint: mean survival time, dose: 100.0 mg/kg/injection, schedule: Q04DX002 (ip), vehicle: saline with Tween-80 116 % of control | endpoint: mean survival time, dose: 400.0 mg/kg/injection, schedule: Q04DX002 (ip), vehicle: saline with Tween-80 103 % of control

CN(C)N=Nc1ccccc1[N+](=O)[O-]
inactive: endpoint: mean survival time, dose: 53.0 mg/kg/injection, schedule: Q01DX001 (ip), vehicle: saline 105 % of control | endpoint: mean survival time, dose: 53.0 mg/kg/injection, schedule: Q01DX009 (ip), vehicle: saline 104 % of control | endpoint: mean survival time, dose: 79.0 mg/kg/injection, schedule: Q01DX001 (ip), vehicle: saline 105 % of control | endpoint: mean survival time, dose: 79.0 mg/kg/injection, schedule: Q01DX009 (ip), vehicle: saline 109 % of control | endpoint: mean survival time, dose: 119.0 mg/kg/injection, schedule: Q01DX001 (ip), vehicle: saline 108 % of control | endpoint: mean survival time, dose: 119.0 mg/kg/injection, schedule: Q01DX009 (ip), vehicle: saline 118 % of control | endpoint: mean survival time, dose: 178.0 mg/kg/injection, schedule: Q01DX001 (ip), vehicle: saline 115 % of control | endpoint: mean survival time, dose: 600.0 mg/kg/injection, schedule: Q01DX001 (ip), vehicle: saline 118 % of control

CC1=C(/C=C/C(C)=C/C=C/C(C)=C/C=O)C(C)(C)CCC1
inactive: endpoint: median survival time, dose: 6.25 mg/kg/injection, schedule: Q01DX005 (ip), vehicle: saline with Tween-80 105 % of control | endpoint: median survival time, dose: 12.5 mg/kg/injection, schedule: Q01DX005 (ip), vehicle: saline with Tween-80 100 % of control | endpoint: median survival time, dose: 25.0 mg/kg/injection, schedule: Q01DX005 (ip), vehicle: saline with Tween-80 97 % of control and 103 % of control | endpoint: median survival time, dose: 50.0 mg/kg/injection, schedule: Q01DX005 (ip), vehicle: saline with Tween-80 100 % of control and 101 % of control | endpoint: median survival time, dose: 100.0 mg/kg/injection, schedule: Q01DX005 (ip), vehicle: saline with Tween-80 104 % of control

CC1CC(O)C(N)C(O)C1 (stereo unspecified)
inactive: endpoint: mean survival time, dose: 100.0 mg/kg/injection, schedule: Q01DX001 (ip), vehicle: saline 103 % of control | endpoint: mean survival time, dose: 200.0 mg/kg/injection, schedule: Q01DX001 (ip), vehicle: saline 98 % of control | endpoint: mean survival time, dose: 400.0 mg/kg/injection, schedule: Q01DX001 (ip), vehicle: saline 98 % of control

COC(=O)C1CCN1C(C)C (stereo unspecified)
inactive: [1] 106 % of control | [2] 106 % of control | [3] 96 % of control | [4] 98 % of control | [5] 98 % of control

COc1cc(/C=N/N2C(=O)CSC2=S)ccc1OCc1ccccc1
inactive: endpoint: mean survival time, dose: 100.0 mg/kg/injection, schedule: Q01DX001 (ip), vehicle: saline with Tween-80 95 % of control | endpoint: mean survival time, dose: 200.0 mg/kg/injection, schedule: Q01DX001 (ip), vehicle: saline with Tween-80 91 % of control | endpoint: mean survival time, dose: 400.0 mg/kg/injection, schedule: Q01DX001 (ip), vehicle: saline with Tween-80 89 % of control

N=C(N)Sc1ccccn1
inactive: endpoint: mean survival time, dose: 12.5 mg/kg/injection, schedule: Q01DX009 (ip), vehicle: suspension in saline 98 % of control | endpoint: mean survival time, dose: 25.0 mg/kg/injection, schedule: Q01DX009 (ip), vehicle: suspension in saline 108 % of control | endpoint: mean survival time, dose: 50.0 mg/kg/injection, schedule: Q01DX009 (ip), vehicle: suspension in saline 93 % of control | endpoint: mean survival time, dose: 100.0 mg/kg/injection, schedule: Q01DX009 (ip), vehicle: suspension in saline 93 % of control | endpoint: mean survival time, dose: 200.0 mg/kg/injection, schedule: Q01DX009 (ip), vehicle: suspension in saline 87 % of control | endpoint: mean survival time, dose: 400.0 mg/kg/injection, schedule: Q01DX009 (ip), vehicle: suspension in saline 90 % of control

CCCCCCCC/C=C\CCCCCCCC(=O)NCCN(CC)CC
inactive: [6] 101 % of control | [7] 101 % of control

O=CNCCN(C=O)CCO
inactive: endpoint: mean survival time, dose: 100.0 mg/kg/injection, schedule: Q01DX009 (ip), vehicle: saline 97 % of control | endpoint: mean survival time, dose: 200.0 mg/kg/injection, schedule: Q01DX009 (ip), vehicle: saline 104 % of control | endpoint: mean survival time, dose: 400.0 mg/kg/injection, schedule: Q01DX009 (ip), vehicle: saline 98 % of control

COc1ccc(C(O)c2ncccc2C)cc1OC (stereo unspecified)
inactive: endpoint: mean survival time, dose: 12.5 mg/kg/injection, schedule: Q01DX009 (ip), vehicle: water 100 % of control | endpoint: mean survival time, dose: 25.0 mg/kg/injection, schedule: Q01DX009 (ip), vehicle: water 98 % of control | endpoint: mean survival time, dose: 50.0 mg/kg/injection, schedule: Q01DX009 (ip), vehicle: water 104 % of control | endpoint: mean survival time, dose: 100.0 mg/kg/injection, schedule: Q01DX009 (ip), vehicle: water 100 % of control | endpoint: mean survival time, dose: 200.0 mg/kg/injection, schedule: Q01DX009 (ip), vehicle: water 95 % of control

CCN(C(=O)Nc1ccccc1)c1ccccc1
inactive: endpoint: mean survival time, dose: 75.0 mg/kg/injection, schedule: Q04DX003 (ip), vehicle: saline with Tween-80 98 % of control | endpoint: mean survival time, dose: 150.0 mg/kg/injection, schedule: Q04DX003 (ip), vehicle: saline with Tween-80 98 % of control | endpoint: mean survival time, dose: 300.0 mg/kg/injection, schedule: Q04DX003 (ip), vehicle: saline with Tween-80 106 % of control

O=Cc1nccc2c1[nH]c1ccccc12
inactive: endpoint: mean survival time, dose: 100.0 mg/kg/injection, schedule: Q04DX003 (ip), vehicle: saline with Tween-80 95 % of control | endpoint: mean survival time, dose: 200.0 mg/kg/injection, schedule: Q04DX003 (ip), vehicle: saline with Tween-80 104 % of control | endpoint: mean survival time, dose: 400.0 mg/kg/injection, schedule: Q04DX003 (ip), vehicle: saline with Tween-80 100 % of control

O=C1/C(=C/c2ccccc2)CCC/C1=C\c1ccccc1
inactive: endpoint: mean survival time, dose: 25.0 mg/kg/injection, schedule: Q01DX009 (ip), vehicle: saline with Tween-80 94 % of control | endpoint: mean survival time, dose: 50.0 mg/kg/injection, schedule: Q01DX009 (ip), vehicle: saline with Tween-80 94 % of control | endpoint: mean survival time, dose: 100.0 mg/kg/injection, schedule: Q01DX009 (ip), vehicle: saline with Tween-80 89 % of control

O=C1C=CC(=O)C2C3C=CC(C/C=C\C3)C12 (stereo unspecified)
inactive: endpoint: mean survival time, dose: 12.5 mg/kg/injection, schedule: Q04DX002 (ip), vehicle: saline with Tween-80 105 % of control | endpoint: mean survival time, dose: 25.0 mg/kg/injection, schedule: Q04DX002 (ip), vehicle: saline with Tween-80 94 % of control | endpoint: mean survival time, dose: 50.0 mg/kg/injection, schedule: Q04DX002 (ip), vehicle: saline with Tween-80 94 % of control

OCCN(CCO)c1ccc(O)cc1
inactive: endpoint: mean survival time, dose: 5.0 mg/kg/injection, schedule: Q01DX001 (ip), vehicle: saline 92 % of control | endpoint: mean survival time, dose: 10.0 mg/kg/injection, schedule: Q01DX001 (ip), vehicle: saline 92 % of control | endpoint: mean survival time, dose: 20.0 mg/kg/injection, schedule: Q01DX001 (ip), vehicle: saline 92 % of control | endpoint: mean survival time, dose: 40.0 mg/kg/injection, schedule: Q01DX001 (ip), vehicle: saline 92 % of control | [6] 103 % of control | [7] 101 % of control

Cc1cc(=NO)cc(C)n1O
inactive: endpoint: median survival time, dose: 25.0 mg/kg/injection, schedule: Q01DX009 (ip), vehicle: distilled water + alcohol 108 % of control | endpoint: median survival time, dose: 50.0 mg/kg/injection, schedule: Q01DX009 (ip), vehicle: distilled water + alcohol 104 % of control | endpoint: median survival time, dose: 100.0 mg/kg/injection, schedule: Q01DX009 (ip), vehicle: distilled water + alcohol 112 % of control | endpoint: median survival time, dose: 200.0 mg/kg/injection, schedule: Q01DX009 (ip), vehicle: distilled water + alcohol 108 % of control | endpoint: median survival time, dose: 400.0 mg/kg/injection, schedule: Q01DX009 (ip), vehicle: distilled water + alcohol 97 % of control

CC(C)CC(NC(=O)C(O)C(N)Cc1ccccc1)C(=O)O (stereo unspecified)
inactive: endpoint: mean survival time, dose: 10.0 micrograms/kg/injection, schedule: Q01DX005 (oral), vehicle: saline 96 % of control | endpoint: mean survival time, dose: 100.0 micrograms/kg/injection, schedule: Q01DX005 (oral), vehicle: saline 100 % of control | endpoint: median survival time, dose: 10.0 micrograms/mouse/injection, schedule: Q01DX010 (oral), vehicle: saline 97 % of control | endpoint: median survival time, dose: 100.0 micrograms/mouse/injection, schedule: Q01DX010 (oral), vehicle: saline 95 % of control
